Patent US20160215305A1, “Process of Fermenting A Lignocellulosic Biomass” (priority 2015, published 2016)
“And” between values parts separate entries of the source, which are not always exact repeats. Identical values can stand only once.

Experiments:
S. cerevisiae [1] = experiment: Fermentation of glucose solution with model inhibitors (cinnamaldehyde, vanillin), with or without cysteine or glycine detoxification; type: cell-based, Saccharomyces cerevisiae; details: for detoxification of cinnamaldehyde in glucose solution (fermentation): 2.5 mM cinnamaldehyde
Experimental: (§1) Batch fermentation was carried out in 125 mL serum bottles containing 50 mL broths (untreated or detoxified hydrolysates, untreated or detoxified cinnamaldehyde sugar solution) without any additional nutrient supplement. All the fermentation broths were adjusted to pH 6 with NaOH or H2SO4 and sterilized by passing 0.2 μm sterile filters. After inoculation, the serum bottle was sealed with rubber stopper and aluminum seal, and equipped with cannulas for CO2 release. All fermentation experiments were incubated at 30° C., spun at 150 rpm in a shaker (E24, New Brunswick Scientific). Aliquots of samples were withdrawn at 0, 1, 3, 6, 9, 12, 24, 36 and 48 hours for the time course analysis of both starting material and products. Fermentation was carried out in duplicate. The volumetric ethanol productivity and initial consumption rate of glucose (RG) and mannose (RM) was calculated based on the sugar consumed in the first 6 h of fermentation as described previously (Cao, D. X., Tu, M. B., Xie, R., Li, J., Wu, Y. N., Adhikari, S. 2014. Inhibitory Activity of Carbonyl Compounds on Alcoholic Fermentation by Saccharomyces cerevisiae. Journal of Agricultural and Food Chemistry, 62(4), 918-926).
Preparation of the lignocellulosic biomass and the treatment thereof was performed as described in Example 1. After detoxification, the detoxified hydrolysates were cooled to room temperature and then readjusted to pH 6.0 if needed. Similarly, for the model compound (cinnamaldehyde) detoxification, glucose (˜20 g/L) was mixed with 2.5 mM cinnamaldehyde, and then treated with 5 mM cysteine or glycine at 60° C. for 2 hours prior to fermentation.
To ascertain the potential reaction mechanism in amino acids detoxification of biomass hydrolysates, cinnamaldehyde was detoxified in glucose solution with cysteine and glycine.

S. cerevisiae [2] = details: cited from earlier work
S. cerevisiae [3] = experiment: Batch fermentation of amino acid detoxified loblolly pine hydrolysates by Baker yeast; type: cell-based, Saccharomyces cerevisiae
Text: Loblolly pine (Pinus taeda) wood chips (1.0×1.0 cm, L×W) were collected by Forest Products Laboratory at Auburn University, located in Auburn, Ala. Dilute acid pretreatment was used to produce biomass hydrolysates in a 4.0 L Parr batch reactor (Parr Instrument Co., Moline, Ill.) as previously described (Lai, C. H., Tu, M. B., Li, M., Yu, S. Y. 2014. Remarkable solvent and extractable lignin effects on enzymatic digestibility of organosolv pretreated hardwood. Bioresource Technology, 156, 92-98). Briefly, wood chips (400 grams, dry weight) were soaked in 1% (w/w) sulfuric acid overnight (7:1 liquor/solid ratio) prior to the pretreatment, and then loaded into a reactor and treated at 170° C. for 60 minutes.
To achieve higher ethanol titer in fermentation, loblolly pine hydrolysates were concentrated to approximately one-third of its original volume using a rotary evaporator (IKA RV10 basic) at 40° C. and 60 rotations per minute (rpm). The hydrolysates were first adjusted to pH 4.0 before evaporation. After the concentration, the sugar contents of the hydrolysates were analyzed by HPLC.
[…] The detoxification experiments were performed in a 250 mL flask and placed in a temperature-controlled water batch.
Baker yeast (Fleischmann's), S. cerevisiae, was used for all the fermentation experiments in this study. The yeast was maintained on YDP medium containing (g/L): 20 glucose, 20 peptone, 10 yeast extract and 20 agar. Isolated colony was grown in YDP liquid medium overnight and harvested as fermentation inoculum. The yeast concentration was measured using an UV-vis spectrophotometer. Inoculum of 2.0 g/L was used for all fermentation experiments.
as §1
Ethanol, acetic acid, levulinic acid, formic acid, furfural and HMF were analyzed using an Aminex HPX-87H column (300×7.8 mm) with a refractive index detector. The elution conditions were column temperature of 45° C. and flow rate of 0.6 ml/min with 5.0 mM H2SO4 as the mobile phase in a 60 min isocratic run.

[4] = detoxification at 80° C., pH 6.0, 2 hours
[5] = hydrolysates detoxified with amino acid 0.2% w/v, pH 6.0, 60° C., 2 hours
[6] = hydrolysates detoxified with amino acid 0.2% w/v, pH 6.0, 60° C., 2 hours, listed as cysteine
[7] = pH 6.0, 60° C., 2 hours detoxification
[8] = glucose ~20 g/L, 5 mM amino acid, 60° C., 2 hours
[9] = detoxification at 50° C., pH 6.0, 2 hours
[10] = detoxification at pH 8.0, 60° C., 2 hours
[11] = hydrolysates detoxified with amino acid 0.2% w/v, pH 6.0, 60° C., 2 hours, listed as glycine
[12] = hydrolysates detoxified with amino acid 0.2% w/v, pH 6.0, 60° C., 2 hours, listed as lysine

SMILES: COc1cc(C=O)ccc1O [vanillin, reference compound]
- inhibition of glucose fermentation (final ethanol concentration and yield) (S. cerevisiae [1]; 10 mM inhibitor in glucose solution, preliminary results): did not inhibit the final ethanol concentration and yield

SMILES: O=Cc1ccc(CO)o1 [HMF, hydroxymethylfurfural]
- effect on ethanol production by S. cerevisiae (S. cerevisiae [2]; addition of 25 mM (3.16 g/L)): did not affect the ethanol production

SMILES: N[C@@H](CS)C(=O)O [Cysteine, cysteine]
- increase of volumetric ethanol productivity when pH was increased from 2 and 4 to 6 (S. cerevisiae [3]; 60° C., 2 hours): 92%
- final ethanol yield (S. cerevisiae [3]; detoxification at 20, 40, 60 and 80° C. (approximately the same), pH 6.0): ~0.42 g/g
- final ethanol concentration (S. cerevisiae [3]; detoxification at 20, 40, 60 and 80° C. (the same), pH 6.0): about 23.34 g/L
- volumetric ethanol productivity (S. cerevisiae [3]; detoxification at 20° C., pH 6.0, 2 hours): 0.83 g/L/h
- volumetric ethanol productivity (S. cerevisiae [3]; detoxification at 40° C., pH 6.0, 2 hours): 1.19 g/L/h
- volumetric ethanol productivity (S. cerevisiae [3]; [4]): 1.90 g/L/h
- final ethanol concentration (S. cerevisiae [3]; detoxification at pH 2.0, 4.0 and 6.0 (the same), 60° C.): 23.56 g/L
- volumetric ethanol productivity (S. cerevisiae [3]; detoxification at pH 2 and 4, 60° C., 2 hours): 0.92 g/L/h
- CEtOH, ethanol final concentration at 48 h (S. cerevisiae [3]; [5]): 23.14 ± 0.10 g/L
- QEtOH, volumetric ethanol productivity in the first 6 h (S. cerevisiae [3]; [5]): 1.77 ± 0.03 g/L/h
- RG, glucose consumption rate in the first 6 h (S. cerevisiae [3]; [5]): 2.10 ± 0.04 g/L/h
- RM, mannose consumption rate in the first 6 h (S. cerevisiae [3]; [5]): 2.16 ± 0.12 g/L/h
- YEtOH, ethanol yield from total glucose and mannose at 48 h (S. cerevisiae [3]; [5]): 0.42 ± 0.00 g/g
- CEtOH, ethanol final concentration at 48 h (S. cerevisiae [3]; [6]): 23.14 g/L
- QEtOH, volumetric ethanol productivity in the first 6 h (S. cerevisiae [3]; [6]): 1.77 g/L/h
- RG, glucose consumption rate in the first 6 h (S. cerevisiae [3]; [6]): 2.10 g/L/h
- RM, mannose consumption rate in the first 6 h (S. cerevisiae [3]; [6]): 2.16 g/L/h
- YEtOH, ethanol yield from total glucose and mannose at 48 h (S. cerevisiae [3]; [6]): 0.42 g/g
- ethanol productivity higher than positive sugar control (1.39 g/L/h) (S. cerevisiae [3]; [7]): 27%
- improvement of mannose consumption rate compared to the positive sugar control (S. cerevisiae [3]; [7]): 43%
- increase of volumetric ethanol productivity when temperature was changed from 20 to 40, 60, and 80° C. (S. cerevisiae [3]; pH 6.0, 2 hours): 43-130%
- detoxification of cinnamaldehyde in glucose solution (fermentation) (S. cerevisiae [1]; [8]): detoxified cinnamaldehyde very effectively

SMILES: NCC(=O)O [Glycine, glycine]
- ethanol productivity (S. cerevisiae [3]; [9]): 0.24 g/L/h
- final ethanol concentration (S. cerevisiae [3]; [9]): 1.87 g/L
- final ethanol concentration (S. cerevisiae [3]; detoxification at 70 and 80° C., pH 6.0, 2 hours): 23.00 g/L
- ethanol productivity (S. cerevisiae [3]; detoxification at 70° C., pH 6.0, 2 hours): 1.08 g/L/h
- volumetric ethanol productivity (S. cerevisiae [3]; [4]): 1.33 g/L/h
- fermentability of detoxified biomass hydrolysates (S. cerevisiae [3]; detoxification at pH 2.0 and 4.0, 60° C., 2 hours): not fermentable
- fermentability of detoxified hydrolysates (S. cerevisiae [3]; detoxification at pH 2.0 and 4.0, 80° C.): still not fermentable
- ethanol productivity (S. cerevisiae [3]; [10]): 0.87 g/L/h
- final ethanol concentration (S. cerevisiae [3]; [10]): 23.77 g/L
- CEtOH, ethanol final concentration at 48 h (S. cerevisiae [3]; [5]): 8.58 ± 0.27 g/L
- QEtOH, volumetric ethanol productivity in the first 6 h (S. cerevisiae [3]; [5]): 0.42 ± 0.01 g/L/h
- RG, glucose consumption rate in the first 6 h (S. cerevisiae [3]; [5]): 0.39 ± 0.01 g/L/h
- RM, mannose consumption rate in the first 6 h (S. cerevisiae [3]; [5]): 0.50 ± 0.05 g/L/h
- YEtOH, ethanol yield from total glucose and mannose at 48 h (S. cerevisiae [3]; [5]): 0.16 ± 0.01 g/g
- CEtOH, ethanol final concentration at 48 h (S. cerevisiae [3]; [11]): 8.58 g/L
- QEtOH, volumetric ethanol productivity in the first 6 h (S. cerevisiae [3]; [11]): 0.42 g/L/h
- YEtOH, ethanol yield from total glucose and mannose at 48 h (S. cerevisiae [3]; [11]): 0.16 g/g
- detoxification of cinnamaldehyde in glucose solution (fermentation) (S. cerevisiae [1]; glucose solution, detoxified at 80° C.): became fermentable
- detoxification of cinnamaldehyde in glucose solution (fermentation) (S. cerevisiae [1]; [8]): did not detoxify the cinnamaldehyde

SMILES: CC(=O)O [acetic acid]
- increase of final ethanol yield in S. cerevisiae fermentation (S. cerevisiae [2]; 9 g/L at pH 5): 16%

SMILES: NCCCC[C@H](N)C(=O)O [Lysine, lysine]
- CEtOH, ethanol final concentration at 48 h (S. cerevisiae [3]; [5]): 14.40 ± 0.57 g/L
- QEtOH, volumetric ethanol productivity in the first 6 h (S. cerevisiae [3]; [5]): 0.72 ± 0.01 g/L/h
- RG, glucose consumption rate in the first 6 h (S. cerevisiae [3]; [5]): 0.80 ± 0.06 g/L/h
- RM, mannose consumption rate in the first 6 h (S. cerevisiae [3]; [5]): 1.09 ± 0.13 g/L/h
- CEtOH, ethanol final concentration at 48 h (S. cerevisiae [3]; [12]): 14.40 g/L
- RG, glucose consumption rate in the first 6 h (S. cerevisiae [3]; [12]): 0.80 g/L/h
- RM, mannose consumption rate in the first 6 h (S. cerevisiae [3]; [12]): 1.09 g/L/h

SMILES: O=CC=Cc1ccccc1 [cinnamaldehyde, reference compound]
- inhibition of glucose fermentation (S. cerevisiae [1]; 2.5 mM inhibitor in glucose solution, preliminary results): inhibited glucose fermentation significantly

SMILES: NC(=O)CC[C@H](N)C(=O)O [Glutamine, glutamine]
- CEtOH, ethanol final concentration at 48 h (S. cerevisiae [3]; [5]): 3.52 ± 0.06 g/L
- CHMF, percentage of HMF consumed at 48 h (S. cerevisiae [3]; [5]): 13.38 ± 0.99%
- QEtOH, volumetric ethanol productivity in the first 6 h (S. cerevisiae [3]; [5]): 0.40 ± 0.00 g/L/h
- RG, glucose consumption rate in the first 6 h (S. cerevisiae [3]; [5]): 0.38 ± 0.02 g/L/h
- RM, mannose consumption rate in the first 6 h (S. cerevisiae [3]; [5]): 0.73 ± 0.01 g/L/h
- YEtOH, ethanol yield from total glucose and mannose at 48 h (S. cerevisiae [3]; [5]): 0.06 ± 0.01 g/g

SMILES: N[C@@H](Cc1c[nH]c2ccccc12)C(=O)O [Tryptophan, tryptophan]
- CEtOH, ethanol final concentration at 48 h (S. cerevisiae [3]; [5]): 11.59 ± 0.25 g/L
- QEtOH, volumetric ethanol productivity in the first 6 h (S. cerevisiae [3]; [5]): 0.63 ± 0.01 g/L/h
- RG, glucose consumption rate in the first 6 h (S. cerevisiae [3]; [5]): 0.69 g/L/h and 0.69 ± 0.00 g/L/h
- RM, mannose consumption rate in the first 6 h (S. cerevisiae [3]; [5]): 0.89 g/L/h and 0.89 ± 0.04 g/L/h
- CEtOH, ethanol final concentration at 48 h (S. cerevisiae [3]; hydrolysates detoxified with amino acid 0.2% w/v, pH 6.0, 60° C., 2 hours, listed as tryptophan): 11.59 g/L
